Source: publication PMC10762035, “Molecular basis of human trace amine-associated receptor 1 activation” (Nature Communications, 2024)
Changes are numbered by the printed parent chain. Several values for one entry are separate records, joined by “and”; a condition that tells them apart may be missing. Equal values may be shown once.

Key:
Format in all cases: cell-based
hTA1 T271N = molecular target: T1, hTA1 T271N (Homo sapiens, UniProt Q96RJ0, T271N); test: GloSensor cAMP accumulation assay, T271N mutant; details: T271N; for Normalized Luminescence Counts for Concentration Response Curves: log[Agonist], single replicates
T1 construct: expressed in transfected cells; host or cells: HEK293T
T1 sequence (Q96RJ0 1-339 T271N): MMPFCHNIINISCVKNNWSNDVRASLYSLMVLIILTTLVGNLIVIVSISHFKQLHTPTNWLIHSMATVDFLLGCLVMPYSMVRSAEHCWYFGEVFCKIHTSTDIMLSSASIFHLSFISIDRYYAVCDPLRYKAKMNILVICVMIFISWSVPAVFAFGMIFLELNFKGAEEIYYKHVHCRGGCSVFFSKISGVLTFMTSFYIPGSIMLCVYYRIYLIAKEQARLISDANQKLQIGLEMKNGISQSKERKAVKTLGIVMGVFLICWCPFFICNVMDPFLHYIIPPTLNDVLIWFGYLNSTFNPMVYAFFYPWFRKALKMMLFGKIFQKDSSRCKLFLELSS

hTA1 C96S = molecular target: T2, hTA1 C96S (Homo sapiens, UniProt Q96RJ0, C96S); test: GloSensor cAMP accumulation assay, C96S mutant; details: log[Compound]
T2 construct: expressed in transfected cells; host or cells: HEK293T
T2 sequence (Q96RJ0 1-339 C96S): T1 sequence (Q96RJ0 1-339 T271N) with C96S, N271T

hTA1 W264F = molecular target: T3, hTA1 W264F (Homo sapiens, UniProt Q96RJ0, W264F); test: GloSensor cAMP accumulation assay, W264F mutant;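 note: cells transiently transfected with receptor plus GloSensor, luminescence read 30 min after agonist addition at room temperature, concentration-response curves fitted by log(agonist) vs response regression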
T3 construct: expressed in transfected cells; host or cells: HEK293T
T3 sequence (Q96RJ0 1-339 W264F): T1 sequence (Q96RJ0 1-339 T271N) with W264F, N271T

[1] = molecular target: T4, β2AR-Nterm-hTA1-F112^3.41W (CryoEM Construct) (Homo sapiens, UniProt Q96RJ0, F112W); test: GloSensor cAMP accumulation assay, cryoEM construct;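 note: cells transiently co-transfected with the receptor construct and GloSensor cAMP biosensor, luminescence read after 30 min compound exposure at room temperature in the dark as cAMP accumulation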;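 for Normalized Luminescence Counts (N=2): normalized to the maximum response of β-PEA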
T4 construct: FLAG (N); 10xHis (N); TEV protease site (N); expressed in transfected cells; host or cells: HEK293T

[2] = Cryo EM Construct, mean of each independent experiment (3 replicates)

T4 sequence (Q96RJ0 with tags, fused parts or gaps F112W): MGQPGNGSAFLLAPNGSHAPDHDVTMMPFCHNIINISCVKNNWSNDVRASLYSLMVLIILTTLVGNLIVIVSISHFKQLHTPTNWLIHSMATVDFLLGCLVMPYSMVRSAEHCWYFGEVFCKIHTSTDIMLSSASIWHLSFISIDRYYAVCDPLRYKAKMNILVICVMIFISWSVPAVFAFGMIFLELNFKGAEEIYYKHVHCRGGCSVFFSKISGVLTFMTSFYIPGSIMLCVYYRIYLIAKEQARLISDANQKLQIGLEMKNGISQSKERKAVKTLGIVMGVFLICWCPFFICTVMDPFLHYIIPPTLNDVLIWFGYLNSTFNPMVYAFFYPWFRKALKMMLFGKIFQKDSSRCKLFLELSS

SMILES: NCCc1ccccc1 [β-PEA, β-phenethylamine]
- Normalized Luminescence Counts for Concentration Response Curves (hTA1 T271N; M -7.522): 13.7138 and 6.913 and 9.921 and 7.175 and 4.66 and 5.236
- Normalized Luminescence Counts for Concentration Response Curves (hTA1 T271N; M -8): 4.385 and 5.17 and 5.257 and 2.984 (2×) and 1.569
- Normalized Luminescence Counts for Concentration Response Curves (hTA1 T271N; M -8.522): 2.467 and 1.9 and 1.508 and 0.2596 and -0.631 and 0.5215
- Normalized Luminescence Counts for Concentration Response Curves (hTA1 T271N; M -9): 0.4181 and 0.5052 and 1.246 and -0.2643
- Span ± SEM (Emax normalized to β-PEA) (hTA1 T271N; n=2): 100 ± 3.3
- pEC50 ± SEM (hTA1 T271N; n=2): 6.43 ± 0.06
- EC50 (hTA1 T271N; n=2, read-out: EC50): 374 nM
- Normalized Luminescence Counts (hTA1 C96S; C96S, M = -5, single replicates (N=2)): 35.6736 and 42.2638 and 54.1262 and 8.922 and 12.7948 and 20.5413
- Normalized Luminescence Counts (hTA1 C96S; C96S, M = -5.522, single replicates (N=2)): 25.7883 and 20.5161 and 22.4932 and 16.6681 and -2.698 and 8.922
- Normalized Luminescence Counts (hTA1 C96S; C96S, M = -6, single replicates (N=2)): 12.6079 and 10.6308 and 7.995 and -2.698 (2×) and 5.048
- Normalized Luminescence Counts (hTA1 C96S; C96S, M = -6.522, single replicates (N=2)): 0.7455 (2×) and 3.382 and 1.175 and -6.571 (2×)
- Normalized Luminescence Counts (hTA1 C96S; C96S, M = -7, single replicates (N=2)): 0.7455 and -1.232 and -0.5726 and -2.698 (2×) and -6.571
- Normalized Luminescence Counts (hTA1 C96S; C96S, M = -7.522, single replicates (N=2)): -0.5726 and -1.891 and 0.08646 and -4.6346 (2×) and -6.571
- Normalized Luminescence Counts (hTA1 C96S; C96S, M = -8, single replicates (N=2)): 2.064 and 0.7455 and -0.5726 and 1.175 and 6.985 and 5.048
- Normalized Luminescence Counts (hTA1 C96S; C96S, M = -8.522, single replicates (N=2)): 2.723 and -1.232 and -1.891 and 6.985 and 1.175 and 8.922
- Normalized Luminescence Counts (hTA1 C96S; C96S, M = -9, single replicates (N=2)): -0.5726 and 0.08646 and -1.232 and 10.8582 and 1.175 and -0.7614
- Normalized Luminescence Counts (hTA1 C96S; C96S, M = -9.522, single replicates (N=2)): 2.064 and -3.209 and -1.232 and -2.698 (2×) and 3.112
- Normalized Luminescence Counts (hTA1 C96S; C96S, M = -10, single replicates (N=2)): 0.08646 and -0.5726 and -1.232 and -8.508 and -2.698 and -0.7614
- Normalized Luminescence Counts (hTA1 C96S; C96S, M = -10.522, single replicates (N=2)): 4.7 and -1.232 and -1.891 and -10.4444 and -0.7614 and -2.698
- Normalized Luminescence Counts (hTA1 C96S; C96S, M = -11, single replicates (N=2)): 2.723 and -0.5726 and 0.7455 and -10.4444 and 3.112 and 1.175
- Normalized Luminescence Counts (hTA1 C96S; C96S, M = -11.522, single replicates (N=2)): 0.08646 and 2.064 and -2.55 and -10.4444
- Normalized Luminescence Counts (hTA1 C96S; M = -11.522, single replicates, mutant block above C178S): -0.6791 and -0.9294 and -0.1556 and 1.551 and 0.7492 and 1.23
- Normalized Luminescence Counts (hTA1 C96S; M = -12, single replicates, mutant block above C178S): -0.6108 and -0.9294 and -0.5425 and 1.07 and 0.8561 and 1.283
- Normalized Luminescence Counts (hTA1 C96S; M = -12.522, single replicates, mutant block above C178S): -0.7929 and -0.6336 and -1.02 and 1.337 and 1.283 and 0.8561
- ΔEmax values (each mutant value - WT average) (hTA1 W264F; W246F mutant (so in the source) minus WT average): 0
- pEC50 values, Mean (hTA1 W264F; W246F mutant (so in the source), each line an independent experiment, 3 replicates): 5.329 and 5.8775
- Emax values, Mean (hTA1 W264F; W246F mutant (so in the source), β-PEA = 100, each line an independent experiment, 3 replicates): 100
- Span ± SEM (Emax normalized to β-PEA) (hTA1 W264F; W264F, n=2): 100 ± 4.75
- pEC50 ± SEM (hTA1 W264F; W264F, n=2): 5.6 ± 0.06
- EC50 (hTA1 W264F; W264F, n=2, read-out: EC50): 2490 nM
- ΔEmax values (each mutant value - WT average), Mean ([1]; Cryo EM Construct minus WT average): 0
- Emax values, Mean [1, 2]: 0.8322
- pEC50 values, Mean [1, 2]: 7.553 and 7.926
- Normalized Luminescence Counts (N=2) ([1]; CryoEM Construct, log[Compound], M = -5, single replicates): 99.4824 and 93.6783 and 105.677 and 107.109
- Span ± SEM (Emax normalized to β-PEA) ([1]; CryoEM Construct, n=2): 100 ± 1.84
- pEC50 ± SEM ([1]; CryoEM Construct, n=2): 7.75 ± 0.04
- EC50 ([1]; CryoEM Construct, n=2, read-out: EC50): 17.4 nM
